Assay results taken from patent US6844004B2, “Topical formulations of natamycin/pimaricin” (Board of Regents, The University of Texas System, priority 1997, dated 2005).
Values after ≈ are worked out from the molar mass of the structure shown.

Columns and labels:
[1] = surface in contact with AMB; cited from earlier work
physchem = type: physicochemical; details: 22 °C, organic solvent or mixture, thermodynamic from solid
Protocol: Natamycin solubility was determined in several individual vehicles (see Table I). Briefly, a known amount of the drug, as a powder (different lots of purified drug were obtained from Gist-Brocades N.V., Netherlands, and from Sigma Chemical Company, St Louis, Mo.), was equilibrated in the respective solvent at RT (22° C.) over 5 min to 4 hours. An aliquot was then removed and diluted in MeOH prior to HPLC at predetermined times. Based on the Natamycin solubility in these particular vehicles, the inventors attempted to enhance the solubility by mixing different solvents according to the principle of cosolvency (Spiegel and Noseworthy, 1963; Yalkowsky and Roseman, 1981). Several different solvent systems were evaluated relative to the above estimates of necessary solubility to arrive at a clinically relevant optimal stock formulation. […] The “final solvent” is preferably one of the commonly available ointment bases, such as petroleum jelly, cocoa butter, Aquaphor™, all of which are readily available and commonly used for topical administration, either for moisturizing purpose or for dissolving various chemically active compounds.
Solubility Studies. […] Samples of 1 ml were taken at various time intervals, and filtered through a 0.45 μm PTFE™ membrane filter fitted to a syringe assembly (Whatman Inc.), and after appropriate dilution, the Natamycin concentration was determined by HPLC.

[2] = type: physicochemical
Protocol: Stability of the various Natamycin formulations. To study the physical and chemical stability of the various parenteral formulations, three sets of studies were performed: • (a) Natamycin was dissolved at a concentration of 100-300 mg/ml in HAc (“stock solution”) and incubated at 4° C., at 22° C. and at 40° C. The drug concentration was analyzed by HPLC in samples taken immediately after solubilization and after gradually increasing time intervals of up to 48 hours. • (b) The Natamycin-HAc stock solution was diluted with PEG/water (1:1:1, v:v:v, HAc:PEG:water), or PG/DMSO (1:1:1, v:v:v), or PG/DMSO/PEG (1:1:1:1, v:v:v:v), or aqueous lipid emulsion (1:10 and 1:100, v:v, HAc:Intralipid™), to yield Natamycin concentrations ranging from 1-50 mg/ml. • (c) The HAc-Natamycin mixture was diluted in NS or 5% dextrose to a drug concentration of 1 mg/ml. (d) The HAc-Natamycin mixture was blended with DMSO and Intralipid™, or directly in Intralipid™.
The various formulations were analyzed by HPLC immediately after mixing, then hourly for 8 hours, and then at gradually increasing time intervals up to several weeks, depending on the rate of degradation in the respective solvent system.
The temperature-dependent stability of solubilized Natamycin in the different solvent systems was studied as follows: The drug was dissolved in HAc at 100 mg/ml, and different aliquots were stored at 4° C., at 22° C., and at 40° C. Immediately after solubilization and at various intervals up to 48 hours later, aliquots from the different samples were analyzed by HPLC. The drug samples stored at 4° C. and at 22° C. degraded slower than those stored at higher temperatures: at 40° C. the Natamycin started degrading within 1 hour after the start of incubation, and at RT there was a loss of 5-10% in the first 4 hours.

[3] = test system: tested strains of Fusarium; experiment: Antifungal sensitivity (MIC); type: cell-based; details: all tested strains of Fusarium
Protocol: (§1) Methodology. The antifungal activity of Natamycin was compared with that of amphotericin B utilizing a previously described assay (Anaissie et al., 1991). Briefly, serial dilutions of Natamycin and AMB were mixed in RPMI growth medium with L-glutamine and MOPS-buffer, pH 7.0 (Sigma Chemical Co., St. Louis, Mo.). The different strains of Candida, Aspergillus and Fusarium spp. were then added to the dishes. After incubation at 35° C. for 48 to 72 hours the plates were evaluated for fungal proliferation. The used fungal strains were obtained from the ATCC or isolated from patients, primarily at the MD Anderson Cancer Center. The Natamycin concentrations in the used solutions were assayed with HPLC to assure the highest possible reproducibility of the drug concentrations.

[4] = test system: tested strains of Candida spp.; experiment: Antifungal sensitivity (MIC); type: cell-based; details: all tested strains of Candida spp.
Protocol: as §1

[5] = test system: Aspergillus strains, except for A. flavus; experiment: Antifungal sensitivity (MIC); type: cell-based; details: all Aspergillus strains except A. flavus
Protocol: as §1

A. flavus = experiment: Antifungal sensitivity (MIC); type: cell-based; details: Aspergillus flavus; the tested A. flavus
Protocol: as §1

SMILES | inflammation of the mucosal surface, share of treated subjects [1] [%] | solubility thermodynamic (physchem) [mg/mL] | loss of drug (degradation) ([2]; 100 mg/ml) | time to start of degradation ([2]; 100 mg/ml) [h] | time until degradation apparent ([2]; 100 mg/ml) [h] | time stable (by HPLC) ([2]; HAc and DMSO primary solvent, Intralipid, lyophilized, reconstituted to 10 mg/ml with distilled water, RT) | time stable ([2]; HAc-Natamycin stock diluted with 20% Intralipid to 10-50 mg/ml) | MIC (sensitive in the range) [3] [µg/mL] | MIC (sensitive in the range) [4] [µg/mL] | MIC [5] [µg/mL] | MIC (A. flavus) [µg/mL]
C[C@@H]1[C@H](O)[C@@H](C)/C=C/C=C/C=C/C=C/C=C/C=C/C=C/[C@H](O[C@@H]2O[C@H](C)[C@@H](O)[C@H](N)[C@@H]2O)C[C@@H]2O[C@](O)(C[C@@H](O)C[C@@H](O)[C@H](O)CC[C@@H](O)C[C@@H](O)CC(=O)O[C@H]1C)C[C@H](O)[C@H]2C(=O)O [AMB, Amphotericin B] | > 75 |  |  |  |  |  |  |  |  |  | 
C[C@@H]1C/C=C/C=C/C=C/C=C/[C@H](O[C@@H]2O[C@H](C)[C@@H](O)[C@H](N)[C@@H]2O)C[C@@H]2O[C@](O)(C[C@@H](O)C[C@H]3O[C@@H]3/C=C/C(=O)O1)C[C@H](O)[C@H]2C(=O)O [Natamycin, Pimaricin] |  | > 100 | 5-10% | ≤ 1 | 8 to 12 | more than 24 hours | more than 6 weeks | 2 to 4 | 2 to 4 | 2 to 4 (≈ 3 to 6.01 µM) | 16 (≈ 24 µM)
